Assays:
Format in all cases: cell-based
[1] = system: total AKT (AKT-1 plus AKT-2); experiment: Western blot of activated (phosphorylated) total AKT in HER-2/neu over-expressing cells; conditions: SKBR3, BR474, AU565 cells, Heregulin 10 ng/ml or Herceptin 20 mg/ml
Protocol: (§1) MDA-MB-435 and MDA-MB-435/HER-2 cells were obtained from Dr. Yu at the UTMD Anderson Cancer Center, Houston, Tex. Cells were grown in RPMI 1640 supplemented as above in 8% CO2 at 37° C. Western blotting was done as follows. Cells were lysed in lysis buffer (50 mM Tris-HCl, pH 7.4, 150 mM sodium chloride, 1 mM EDTA, 1% Nonidet P-40, 1 mM sodium orthovanadate, 1 mM sodium fluoride, 1 mM phenylmethylsulfonyl fluoride, 2 ug/ml pepstatin, 2 ug/ml leupeptin, 2 ug/ml aprotinin), centrifuged at 4° C. for 5 min at 6500 g, and protein concentration was determined with a BioRad Protein Assay Kit (BioRad, Hercules, Cailf.). Proteins were separated by electrophoresis using a Bis-Tris NuPAGE system with 1× MOPS running buffer (Novex, San Diego, Cailf.) and transferred to Hybond C-extra membrane (Amersham Pharmacia Biotech, Piscataway, N.J.). Membranes were blocked with non-fat dry milk, incubated with the appropriate antibodies, washed with PBS (phosphate buffered saline) and incubated with horseradish peroxidase-conjugated secondary antibody. […]
(§2) The activated (phosphorylated) state of total AKT (AKT-1 plus AKT-2) in cells over-expressing HER-2/neu was measured to study the functional significance of c-akt in HER-2/neu over-expressing cells and cancers. […] Activated AKT was determined by antibodies that specifically recognize the phosphorylated state of AKT protein. […]

AKT-1 = experiment: Immunoprecipitation and anti-phospho-Akt Western blot, AKT-1
Protocol: as §1, §2

AKT-2 = experiment: Immunoprecipitation and anti-phospho-Akt Western blot, AKT-2
Protocol: as §1, §2

[2] = SKBR3, BR474, AU565 cells, Heregulin 10 ng/ml or Herceptin 20 mg/ml, Western blot

Question: What does the source list for Heregulin?
Answer: phosphorylation of total AKT [1]: increased; AKT-1 phosphorylation (AKT-1; [2]): increased; phosphorylated state of AKT-1 (AKT-1; exposure for 3 days): down-regulation; level of AKT-2 phosphorylation after treatment (AKT-2; [2]): remained high; phosphorylated state of AKT-2 (AKT-2; exposure for 3 days): did not affect
